Laboratory results reported in patent publication US20160279076A1, “METHODS FOR IMPROVEMENT OF VISUAL FUNCTION AND COMPOSITIONS USED THEREIN” (priority 2015, published 2016).

Test system: ARPE-19 cells
Experiment: Gene expression analysis in ARPE-19 cells after lutein pretreatment and UV exposure
Format: cell-based, human
Details: for Down-regulated genes expression / Up-regulated genes expression: 10 μM lutein 24 hour pretreatment
Method: Retinal pigment epithelial (RPE) cells play a key protective role by shielding retina from damaging UV rays and are used as a model to study the effect of macular carotenoids. In this study, a human RPE cell line (ARPE-19 cells were acquired from American Type Culture Collection (ATCC)) was either treated with placebo or treated with macular carotenoids alone or in combination for 24 hours prior to UV exposure. Cells were maintained for another 18 hours, then harvested for gene expressions. In another study, acetylcholinesterase and catalase activities in the presence of macular carotenoids were tested.
According to Study 1, Cell line ARPE-19 was subjected to 24 hour pretreatment with 10 μM lutein, followed by exposure to UV radiation of 1 J/m^2 for 7 seconds.
According to Study 2, Cell line ARPE-19 was subjected to 24 hour pretreatment with 10 μM lutein, followed by exposure to UV radiation of 300 J/m^2 for 10 minutes.
Gene expression analysis was carried out in response to UV exposure and macular carotenoid administration.

CC1=C[C@H](O)CC(C)(C)[C@H]1/C=C/C(C)=C/C=C/C(C)=C/C=C/C=C(C)/C=C/C=C(C)/C=C/C1=C(C)C[C@@H](O)CC1(C)C [Lutein, lutein]
Down-regulated genes expression (with UV exposure): inhibits inflammation
Up-regulated genes expression (with UV exposure): inhibits oncogenesis and growth factor tumor suppressors
Down-regulated genes expression (without UV exposure): inhibits DNA damage and inflammation
Up-regulated genes expression (without UV exposure): inhibits oncogenesis and inflammation
Gene expression analysis, overall role for vision health (ARPE-19 cells, UV irradiation): plays a protective role for vision health
